Source: patent publication US20200131249A1, “NOVEL PROTEINS AND USE THEREOF” (EVOLVERITAS KFT., priority 2017, published 2020)
Where no end group is shown, it is not given here.

Key:
intrinsic pathway = test: Activated partial thromboplastin time (APTT) in human plasma
Description: (§1) Blood coagulation measurements using blood plasma taken from healthy human individuals were also performed. From the blood obtained through venipuncture and treated with sodium citrate (3.8% wt/vol) the plasma was isolated by centrifugation (2,000 g, 15 minutes, Jouan CR412 centrifuge).
(§2) The effect of the protein variants of the present invention on the blood coagulation process was tested in three standard assays, the thrombin time, testing any direct effects on thrombin; prothrombin time, testing any effects on the extrinsic pathway; and the activated partial thromboplastin time, testing any effects on the intrinsic pathway. Blood was collected from a healthy individual by vein puncture after informed consent. The blood was treated with sodium-citrate (3.8% w/v) and centrifuged. All three assays were performed on the automated instrument Sysmex CA-1500 (Sysmex) with Innovin reagent (Dale Behring, Marburg, Germany).
(§3) The inhibitors were applied in a fivefold serial dilution with the highest final concentration being 36 μM. This value is 3-4 orders of magnitudes higher than the KI values of the three protein variants of the present invention on human MASP-2. Even at the highest concentration the protein variants of the present invention have only little effect in the APTT test and no effect in the PT and TT tests.

lectin pathway = test: Lectin pathway activation tests in rat serum, all three assays (C3, C4, C5b-9 deposition); format: biochemical; conditions: result in words
Description: ELISA-based complement lectin pathway activation tests were performed on mannan coated plates using diluted individual (not pooled) rat serum. In these tests, inhibitory efficiencies of the protein of SEQ ID NO: 14 and SGMI-2 were compared. Three different assays were conducted that detect the deposition of C3, C4 or the terminal complement antigen C5b-9, respectively.
96-well Greiner high binding ELISA plates (cat. no. 655061) were coated with 100 μl/well 10 μg/ml mannan dissolved in coating buffer (50 mM sodium-carbonate pH 9.6) overnight at 4° C. Control wells contained coating buffer alone. Wells were blocked for at least 1 h at 37° C. with 200 μl/well
10 mg/ml bovine serum albumin (BSA) dissolved in 50 mM Tris pH 7.4, 150 mM NaCl, 0.1% Tween-20 buffer. Serial dilutions of the inhibitors were made in 10 mM HEPES pH 7.4, 150 mM NaCl, 5 mM CaCl2, 5 mM MgCl2, 0.1% Tween-20 buffer (serum dilution buffer). Rat serum was thawed on ice and diluted 35-fold in serum dilution buffer. […]
50 mM Tris pH 7.4, 150 mM NaCl, 5 mM CaCl2, 0.1% Tween-20 buffer (washing buffer) and 100 μl of the serum-inhibitor samples were transferred onto the plate. […] The 490 nm absorbance values were recorded using a PerkinElmer EnSpire multimode plate reader. Four parallels were measured for each data point. […]

extrinsic pathway = test: Prothrombin time (PT) in human plasma
Description: as §1, §2, §3

thrombin = test: Thrombin time (TT) in human plasma
Description: as §1, §2, §3

MASP-2 = MASP-2 (Homo sapiens, UniProt O00187); design: catalytic enzyme fragments containing the three C-terminal domains: CCP1-CCP2-SP; made in house; inclusion bodies, renatured; conditions: Data from Héja et al. 2012b; cited from earlier work
Chain of MASP-2 (O00187 445-686 limits assumed): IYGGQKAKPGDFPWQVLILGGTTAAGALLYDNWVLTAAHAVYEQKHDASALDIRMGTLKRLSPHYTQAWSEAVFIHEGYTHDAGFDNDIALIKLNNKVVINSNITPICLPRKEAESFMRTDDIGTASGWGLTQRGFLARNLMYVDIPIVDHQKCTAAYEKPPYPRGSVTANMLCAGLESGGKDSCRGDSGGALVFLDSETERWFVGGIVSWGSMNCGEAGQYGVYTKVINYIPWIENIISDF
Chain of MASP-2 (O00187 287-444 partner limits assumed): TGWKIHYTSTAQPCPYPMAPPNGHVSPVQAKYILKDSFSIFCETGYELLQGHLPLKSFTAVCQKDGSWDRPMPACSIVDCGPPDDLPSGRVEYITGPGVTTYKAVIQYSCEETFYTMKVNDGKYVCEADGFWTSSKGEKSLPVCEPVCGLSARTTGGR

human MASP-3 = biological target: T1, human MASP-3 (Homo sapiens, UniProt P48740); conditions: Data from Héja et al. 2012a; cited from earlier work
T1 construct: catalytic enzyme fragments containing the three C-terminal domains: CCP1-CCP2-SP
T1 sequence (P48740 450-728 isoform P48740-2 limits assumed): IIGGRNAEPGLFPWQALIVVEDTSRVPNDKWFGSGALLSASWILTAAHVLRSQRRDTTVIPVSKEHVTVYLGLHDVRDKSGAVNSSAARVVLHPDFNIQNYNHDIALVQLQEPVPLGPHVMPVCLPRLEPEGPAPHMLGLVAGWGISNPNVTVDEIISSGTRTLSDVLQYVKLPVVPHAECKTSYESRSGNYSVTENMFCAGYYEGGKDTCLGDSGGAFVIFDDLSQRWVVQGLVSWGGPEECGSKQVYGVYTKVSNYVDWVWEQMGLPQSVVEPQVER

| Substance | APTT (intrinsic pathway; inhibitor 0.1 μM) [s] | APTT (intrinsic pathway; inhibitor 0.3 μM) [s] | APTT (intrinsic pathway; inhibitor 1.4 μM) [s] | APTT (intrinsic pathway; inhibitor 7.2 μM) [s] | APTT (intrinsic pathway; inhibitor 36.0 μM) [s] | inhibition of the lectin pathway in rat serum (lectin pathway) | PT (extrinsic pathway; inhibitor 0.1 μM) [s] | PT (extrinsic pathway; inhibitor 0.3 μM) [s] | PT (extrinsic pathway; inhibitor 1.4 μM) [s] | PT (extrinsic pathway; inhibitor 7.2 μM) [s] | PT (extrinsic pathway; inhibitor 36.0 μM) [s] | TT (thrombin; inhibitor 0.1 μM) [s] | TT (thrombin; inhibitor 0.3 μM) [s] | TT (thrombin; inhibitor 1.4 μM) [s] | TT (thrombin; inhibitor 7.2 μM) [s] | TT (thrombin; inhibitor 36.0 μM) [s] | Ki (MASP-2) [µM] | Ki (human MASP-3) [µM] |
| --- | --- | --- | --- | --- | --- | --- | --- | --- | --- | --- | --- | --- | --- | --- | --- | --- | --- | --- |
| SEQ ID NO: 14: TFPI-D2 variant protein with inhibitor loop PCRAVKR (SEQ ID NO: 4) (KPDFCFLEEDPGPCRAVKRRYFYNNQTKQCERFKYGGCLGNMNNFETLEECKNICEDG; ends and bridges not checked; cysteine pairing not given here) | 36.1 | 36.8 | 37.9 | 40.2 | 46.4 | completely inhibit | 10.8 | 10.7 | 10.8 | 10.9 | 11.3 | 16.5 | 16.6 | 16.7 | 16.2 | 15.5 |  |  |
| SGMI-2 (GSGEVTCEPGTTFKDKCNTCRCGSDGKSAVCTKLWCNQ; Synthetic protein of insect origin) [reference compound] |  |  |  |  |  | completely inhibit |  |  |  |  |  |  |  |  |  |  | 0.006 | ~5 |
